Measurements: patent publication US6359152B2, “18-substituted-19-nor-vitamin D compounds” (Wisconsin Alumni Research Foundation, priority 1997, dated 2002)

What was measured:
[1] = tested on: Serum Calcium (Bone Calcium Mobilization); test: Serum calcium (bone calcium mobilization) in vitamin D-deficient rats after chronic dosing; assay type: in vivo; settings: for Serum Calcium (mg/100 ml): intraperitoneal, vitamin D-deficient low calcium diet rats, mean ± SEM, 24 h after last dose; for bone calcium mobilizing activity (in words): versus control, given for 7 days in a chronic mode
Procedure: (§1) Male weanling rats were obtained from Sprague Dawley Co. (Indianapolis, Ind.) and fed a 0.47% calcium, 0.3% phosphorus vitamin D-deficient diet for 1 week and then given the same diet containing 0.02% calcium, 0.3% phosphorus for 3 weeks. During the last week they were given the indicated dose of compound by intraperitoneal injection in 0.1 ml 95% propylene glycol and 5% ethanol each day for 7 days. The control animals received only the 0.1 ml of 95% propylene glycol, 5% ethanol. Twenty-four hours after the last dose, the rats were sacrificed and intestinal calcium transport was determined by everted sac technique as previously described and serum calcium determined by atomic absorption spectrometry on a model 3110 Perkin Elmer instrument (Norwalk, Conn.). There were 5 rats per group and the values represent mean ±SEM.

[2] = tested on: Intestinal Calcium Transport; test: Intestinal calcium transport (everted sac) in vitamin D-deficient rats after chronic dosing; assay type: in vivo; settings: for Intestinal Calcium Transport (S/M): intraperitoneal, vitamin D-deficient low calcium diet rats, mean ± SEM, 24 h after last dose; for intestinal calcium transport activity (in words): versus control, given for 7 days in a chronic mode
Procedure: as §1

HL-60 cells = settings: compared to 1,25-(OH)2D3; FIG. 2
Procedure: The differentiation of HL-60 promyelocytic into monocytes was determined as described by Ostrem et al (J. Biol. Chem. 262, 14164-14171, 1987).

[3] = target: T1, porcine intestinal vitamin D receptor (Sus scrofa, UniProt A3RGC1); test: Competitive binding of [3H]-1,25-(OH)2-D3 to the porcine intestinal vitamin D receptor; settings: at low concentrations; FIG. 1
T1 sequence (A3RGC1 1-427): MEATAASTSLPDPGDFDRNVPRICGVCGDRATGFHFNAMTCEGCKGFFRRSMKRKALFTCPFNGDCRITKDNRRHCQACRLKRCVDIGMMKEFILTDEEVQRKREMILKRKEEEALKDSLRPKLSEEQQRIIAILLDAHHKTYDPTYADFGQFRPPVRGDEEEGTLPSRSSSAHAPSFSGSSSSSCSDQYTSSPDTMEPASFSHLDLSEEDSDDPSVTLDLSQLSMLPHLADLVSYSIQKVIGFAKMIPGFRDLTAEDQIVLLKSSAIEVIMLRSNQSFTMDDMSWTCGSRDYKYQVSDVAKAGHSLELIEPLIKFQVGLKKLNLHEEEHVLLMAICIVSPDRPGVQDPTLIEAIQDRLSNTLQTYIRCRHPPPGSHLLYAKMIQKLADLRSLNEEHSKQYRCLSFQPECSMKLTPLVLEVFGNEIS
Procedure: Competitve binding of the analogs to the porcine intestinal receptor was carried out by the method described by Dame et al (Biochemistry 25, 4523-4534, 1986).

| SMILES | Serum Calcium (mg/100 ml) ([1]; 260 pmol/day for 7 days) | Serum Calcium (mg/100 ml) ([1]; 500 pmol/day for 7 days) | bone calcium mobilizing activity (in words) [1] | Intestinal Calcium Transport (S/M) ([2]; 260 pmol/day for 7 days) | Intestinal Calcium Transport (S/M) ([2]; 500 pmol/day for 7 days) | intestinal calcium transport activity (in words) [2] | activity in inducing differentiation of HL-60 cells to the monocyte (HL-60 cells) | binding activity compared to 1,25-(OH)2D3 [3] |
| --- | --- | --- | --- | --- | --- | --- | --- | --- |
| CC[C@]12CCC/C(=C\C=C3C[C@@H](O)C[C@H](O)C3)[C@@H]1CC[C@@H]2[C@H](C)CCCC(C)(C)O [13-Ethyl-18,19-Dinor-1,25-(OH)2D3, 1α,25-dihydroxy-13-ethyl-18,19-dinor-vitamin D3] | 4.39 ± 0.53 | 3.99 ± 0.33 | no significant change versus control | 4.30 ± 0.20 | 4.40 ± 0.27 | no significant change versus control | activity similar to 1,25-(OH)2D3 | approximately twice |
| C=CC12CCC/C(=C\C=C3C[C@@H](O)C[C@H](O)C3)[C@@H]1CC[C@@H]2[C@H](C)CCCC(C)(C)O (stereo partly drawn) [13-Vinyl-18,19-Dinor-1,25-(OH)2D3, 1α,25-dihydroxy-13-vinyl-18,19-dinor-vitamin D3] | 3.32 ± 0.21 | 3.52 ± 0.12 | no significant change versus control | 4.02 ± 0.24 | 4.25 ± 0.55 | no significant change versus control | activity similar to 1,25-(OH)2D3 | approximately twice |
| C[C@H](CCCC(C)(C)O)[C@H]1CC[C@H]2/C(=C/C=C3C[C@@H](O)C[C@H](O)C3)CCC[C@]12C [19-Nor-1,25-(OH)2D3, 1α,25-dihydroxy-19nor-vitamin D3, reference compound] | 3.83 ± 0.20 |  |  | 4.02 ± 0.50 |  |  |  |  |
